Values joined by “and” are separate entries in the source; they are usually repeats but may differ in a detail not shown here. Identical values can stand only once.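 48-hour exposure; five concentrations; linearly interpolated endpoints. The concentration for 50% growth inhibition is given as GI50. TGI marks complete inhibition of growth.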

Here are results for 19 compounds from PubChem BioAssay (NCI).

Test systems include OVCAR-4 ovarian; A549 NSCLC; SK-OV-3 ovarian; SN12C renal; NCI-H23 lung; NCI-H460 lung; HCT-116 colon; CAKI-1 renal; RXF 393 renal; SK-MEL-5 melanoma; KM12 colon.
What all share (experiment): inhibition of tumour cell growth, NCI panel, 48 h

As to `N=C(N)C(N=Nc1ccccc1)C(=N)N` (stereo not given), the TGI in the assay with OVCAR-4 ovarian, in the assay with A549 NSCLC, in the assay with SK-OV-3 ovarian, with SN12C renal, in the assay on NCI-H23 lung and in the assay on NCI-H460 lung was over 100 µM each time. Besides, the TGI in the assay with HCT-116 colon, with CAKI-1 renal, with RXF 393 renal, in the assay with SK-MEL-5 melanoma and in the assay on KM12 colon was over 100 µM throughout.

In the case of `CN1CCN(CCCOc2ccc3ncnc(Nc4ccc(Oc5cccc(C(F)(F)F)c5)c(Cl)c4)c3c2)CC1`, the GI50 with OVCAR-4 ovarian was 1.76 µM; with A549 NSCLC, 1.27 µM; in the assay with SN12C renal it was 1.26 µM; in the assay with NCI-H23 lung, 1.81 µM; in the assay on NCI-H460 lung, 1.73 µM; in the assay on CAKI-1 renal it was 1.31 µM. Moreover, the figures for the GI50 with RXF 393 renal and with KM12 colon were 1.49 µM and 1.86 µM, respectively. The TGI in the assay on OVCAR-4 ovarian was 5.04 µM; in the assay on A549 NSCLC it was 2.74 µM; in the assay with SN12C renal, 2.57 µM; in the assay on NCI-H23 lung it was 4.04 µM; with NCI-H460 lung it was 3.37 µM; in the assay on CAKI-1 renal it was 3.07 µM. Besides, the TGI came to 2.93 µM with RXF 393 renal and 4.01 µM with KM12 colon.

As for `C=C1C(C2(C)C=CC(=O)OC3(C)COC(=O)CC32)C(OC=O)C(OC(=O)C(O)C(C)CC)C2(C)C(c3ccoc3)CC(OC(C)=O)C12O` (stereo not given), the TGI in the assay with A549 NSCLC, in the assay on SK-OV-3 ovarian, in the assay with SN12C renal, with NCI-H23 lung, in the assay on NCI-H460 lung and in the assay with HCT-116 colon was over 100 µM each time. Further, the TGI with CAKI-1 renal, in the assay on RXF 393 renal, with SK-MEL-5 melanoma and in the assay on KM12 colon was over 100 µM each time.

For the compound `CC(=O)OCCC[C@@H]1C(=C(C)C)CCC2[C@@]1(C)CC[C@@]1(C)C[C@](C)(CCC=C(C)C)CC[C@]21C` (stereo not given in full), the TGI in the assay on OVCAR-4 ovarian, in the assay with A549 NSCLC, in the assay with SK-OV-3 ovarian, in the assay on SN12C renal, in the assay on NCI-H23 lung and in the assay with NCI-H460 lung was over 100 µM each time. In addition, the TGI with HCT-116 colon, with CAKI-1 renal, with SK-MEL-5 melanoma and in the assay on KM12 colon was over 100 µM each time.

Consider `O=C1CC(n2cccc2)c2cc(Br)sc21` (stereo not given), for which the TGI in the assay with OVCAR-4 ovarian, with A549 NSCLC, in the assay on SK-OV-3 ovarian, with SN12C renal, in the assay with NCI-H23 lung and in the assay with NCI-H460 lung was over 100 µM each time. The TGI in the assay with HCT-116 colon, with CAKI-1 renal, in the assay with SK-MEL-5 melanoma and in the assay with KM12 colon was over 100 µM in each case.

Turning to `S=C(NCCCCCCNC(=S)Nc1c2ccccc2nc2ccccc12)Nc1c2ccccc2nc2ccccc12`, the TGI in the assay on OVCAR-4 ovarian, with A549 NSCLC, in the assay with SK-OV-3 ovarian, with SN12C renal, with NCI-H23 lung and with NCI-H460 lung was over 100 µM throughout. Also, the TGI is over 100 µM in the assay on HCT-116 colon; over 100 µM in the assay with CAKI-1 renal; over 100 µM in the assay with RXF 393 renal; over 100 µM with SK-MEL-5 melanoma; over 34.7 µM in the assay on KM12 colon.

Consider `CCCCC1Cc2cc(OC)ccc2-c2nc3cc(OC)ccc3n21` (stereo not given) (tested in a mixture with another compound), for which the TGI in the assay on OVCAR-4 ovarian is 18.9 µM; in the assay with A549 NSCLC, 27.9 µM; with SK-OV-3 ovarian, 26.4 µM; in the assay on SN12C renal, 27.9 µM; with NCI-H23 lung, 27.8 µM; in the assay with NCI-H460 lung it was 28.7 µM. Also, the TGI amounted to 22.8 µM with HCT-116 colon; 38.8 µM in the assay with CAKI-1 renal; 30.8 µM in the assay on RXF 393 renal; 27.4 µM with SK-MEL-5 melanoma; 43.4 µM in the assay on KM12 colon.

On to `CCN(CC)/C(=C\Cl)Nc1ccccn1`, for which the TGI in the assay on OVCAR-4 ovarian, in the assay with A549 NSCLC, in the assay with SK-OV-3 ovarian, in the assay with SN12C renal, with NCI-H23 lung and with NCI-H460 lung was over 100 µM throughout. Besides, the TGI in the assay with HCT-116 colon, in the assay with CAKI-1 renal, with RXF 393 renal, with SK-MEL-5 melanoma and in the assay on KM12 colon was over 100 µM in each case.

As to `C[N+]1(C)C2CCC1CC(OC(=O)C(CO)c1ccccc1)C2` (stereo not given), the TGI in the assay with OVCAR-4 ovarian, in the assay on A549 NSCLC, in the assay on SK-OV-3 ovarian, in the assay with SN12C renal, in the assay with NCI-H23 lung and in the assay with HCT-116 colon was over 100 µM each time. Also, the TGI with CAKI-1 renal, in the assay with RXF 393 renal, in the assay with SK-MEL-5 melanoma and in the assay on KM12 colon was over 100 µM each time.

Take `Cc1c2c(cc3c1[nH]c1ccccc13)C(c1ccc(F)cc1)=NCC2`: the TGI with OVCAR-4 ovarian stood at 3.12 µM; in the assay on A549 NSCLC, 6.47 µM; in the assay with SK-OV-3 ovarian, 4.45 µM; with SN12C renal it was 6.4 µM; with NCI-H23 lung, 7.56 µM; in the assay with NCI-H460 lung, 2.45 µM. Moreover, the TGI in the assay on HCT-116 colon is 5.41 µM; with CAKI-1 renal, 4.79 µM; with RXF 393 renal it was 4.32 µM; with SK-MEL-5 melanoma, 4.83 µM; in the assay with KM12 colon it was 7.37 µM.

Consider `NC(=Nc1ccc(Cl)c(Cl)c1)c1ccccc1N`, for which the TGI in the assay on OVCAR-4 ovarian is over 100 µM; with A549 NSCLC it was over 100 µM; in the assay with SK-OV-3 ovarian, over 100 µM; in the assay on NCI-H23 lung it was over 100 µM; with NCI-H460 lung, over 100 µM; in the assay with HCT-116 colon it was 57.1 µM. The TGI in the assay with CAKI-1 renal was over 100 µM; in the assay with RXF 393 renal, 75.9 µM; with SK-MEL-5 melanoma it was 54.7 µM; in the assay on KM12 colon it was over 100 µM.

Regarding `OC1C=C2C3CN(Cc4cc5c(cc43)OCO5)[C@H]2C[C@@H]1O` (stereo not given in full), the TGI was 25.9 µM with OVCAR-4 ovarian; over 100 µM in the assay with A549 NSCLC; over 100 µM with SK-OV-3 ovarian; over 100 µM with SN12C renal; 67.4 µM with NCI-H23 lung; 13.2 µM in the assay with NCI-H460 lung. The TGI in the assay on HCT-116 colon was 25.1 µM; in the assay on CAKI-1 renal, 29.7 µM; with RXF 393 renal it was 21.4 µM; in the assay on SK-MEL-5 melanoma, 16.4 µM; in the assay on KM12 colon, 43.9 µM.

`O=C1OC(c2ccccc2)=N/C1=C/c1cccs1`: the TGI in the assay on OVCAR-4 ovarian, in the assay with A549 NSCLC, in the assay with SK-OV-3 ovarian, in the assay with NCI-H460 lung, with RXF 393 renal and in the assay with KM12 colon was over 100 µM each time.

As to `O=C1c2ccccc2-c2ccc(O)cc21`, the TGI with OVCAR-4 ovarian is 44.2 µM; with A549 NSCLC it was 88 µM; in the assay with SN12C renal, 36.9 µM; in the assay with NCI-H23 lung, 38.5 µM; with NCI-H460 lung it was 76.3 µM; in the assay with HCT-116 colon it was over 100 µM. Further, the TGI with CAKI-1 renal stood at 37.8 µM; in the assay on RXF 393 renal it was 32.9 µM; in the assay on SK-MEL-5 melanoma, 45.4 µM; in the assay with KM12 colon it was 38.4 µM.

`O=C1c2scnc2-c2nccc3c2c1nc1ccccc13`: the TGI with OVCAR-4 ovarian came out at 2.92 µM; in the assay on A549 NSCLC, 4.87 µM; in the assay on SK-OV-3 ovarian, 23.4 µM; in the assay on SN12C renal it was 4.23 µM; in the assay on NCI-H23 lung, 1.2 µM; in the assay on NCI-H460 lung, 1.58 µM. Further, the values for the TGI in the assay with CAKI-1 renal and in the assay with RXF 393 renal were 3.83 µM and 3.98 µM, respectively.

As for `CC(=O)C1(c2ccccc2)CCCN(C)CC1` (stereo not given), the TGI in the assay with OVCAR-4 ovarian, with SK-OV-3 ovarian, with NCI-H23 lung, in the assay with NCI-H460 lung, in the assay with HCT-116 colon and in the assay on CAKI-1 renal was over 100 µM in each case. Also, the TGI with SK-MEL-5 melanoma and in the assay on KM12 colon was over 100 µM each time.

On to `O=C1CS(=O)(=O)C(c2cccc(Oc3ccccc3)c2)N1c1cccc(Cl)c1Cl` (stereo not given), for which the TGI with OVCAR-4 ovarian was 78.9 µM; in the assay with A549 NSCLC it was over 100 µM; in the assay with SK-OV-3 ovarian, over 100 µM; with SN12C renal it was 44.6 µM; in the assay with NCI-H460 lung it was over 100 µM; in the assay with HCT-116 colon it was 40.9 µM. The TGI with CAKI-1 renal was over 100 µM; with RXF 393 renal it was 66.9 µM; with SK-MEL-5 melanoma, 42.6 µM; in the assay with KM12 colon, over 100 µM.

`COc1ccc(OC)c2sc(N3C(=O)/C(=C/c4ccccc4S)N=C3c3ccccc3)nc12`: the TGI in the assay with OVCAR-4 ovarian is over 100 µM; with A549 NSCLC, over 100 µM; with SK-OV-3 ovarian it was over 100 µM; with SN12C renal it was 81.9 µM; with NCI-H460 lung, over 100 µM; in the assay on HCT-116 colon it was 78.2 µM. The TGI with CAKI-1 renal was over 100 µM; in the assay with RXF 393 renal, 58.5 µM; with SK-MEL-5 melanoma, 40.6 µM; in the assay with KM12 colon, over 100 µM.

In the case of `Cc1c(N)nc([C@H](CC(N)=O)NC[C@H](N)C(N)=O)nc1C(=O)N[C@H](C(=O)N[C@H](C)[C@@H](O)[C@H](C)C(=O)N[C@H](C(=O)NCCc1nc(-c2nc(C(=O)NCCC[S+](C)C)cs2)cs1)[C@@H](C)O)C(OC1OC(CO)C(O)C(O)C1OC1OC(CO)C(O)C(OC(N)=O)C1O)c1cnc[nH]1` (stereo not given in full), the TGI in the assay on SN12C renal is 13.2 µM [middle of 4 runs]; in the assay with NCI-H460 lung, 13.1 µM and 7.63 µM and 31.6 µM; in the assay on HCT-116 colon, 20.9 µM [middle of 4 runs]; in the assay with SK-MEL-5 melanoma, 16.9 µM [middle of 4 runs]; in the assay with KM12 colon, 24.5 µM and 23 µM and > 100 µM. In addition, the GI50 with KM12 colon is 4.49 µM.
